# According to patent publication US11767303B2, “Compounds and methods for inhibiting viral replication and methods of treating and preventing flaviviral infections” (priority 2020, dated 2023):
# Entries after “also recorded” stand apart in the source; their conditions may differ.
# Key:
# [1] = test system: ZIKV strain PRVABC59 or ZIKV-Venus; experiment: ZIKV infection of 3D mini-brain organoids; type: cell-based, Zika virus; conditions: 1.5 μM
# From the text: Culturing of human iPSCs. Human iPSC F11350.1 culture was maintained in feed-free conditions using mTeSR1 medium (StemCell Technologies #85851) with 5× supplement (StemCell Technologies #85852). Cells were maintained on six-well plates coated with human embryonic stem cell-qualified Matrigel at a 1:60 dilution (Corning Catalog #354277) and passaged with ReLeSR (StemCell Technologies #05872). Cortical 3D organoids were generated based on the protocol described by Yoon et al. Yoon et al., “Reliability of Human Cortical Organoid Generation,” Nat. Methods. […] Briefly, iPSCs were dissociated with accutase (ThermoFisher #A1110501) and then plated at a density of 3×10^6 cells per well in AggreWell 800 24-well plate (StemCell Technologies #34811) in Essential 8™ medium (ThermoFisher #A1517001) supplemented with 10 μM rock inhibitor (Tocris #Y27632). The plate was centrifuged at 100×g for 3 min and incubated at 37° C. overnight. […]
# To evaluate if JMX0207 protects organoids from ZIKV infections, a full-length infectious ZIKV clone expressing Venus fluorescent protein (ZIKV-Venus) was first generated. […] ZIKV infection was quantified by a plaque forming unit (PFU) assay at 5 dpi and by fluorescence imaging at 7 dpi, respectively. […]
# [2] = not told
smiles,measurement,setting,value
"O=C(Nc1ccc([N+](=O)[O-])cc1Cl)c1cccc([N+](=O)[O-])c1O [JMX0207, N-(2-Chloro-4-nitrophenyl)-2-hydroxy-3-nitrobenzamide]",ZIKV infection of 3D organoid,"[1]; MOI 1, imaging/immunostaining",completely abolished ZIKV infection; also recorded: nearly completely protected the organoids from ZIKV infection
same,ZIKV production from 3D organoids,[1]; PFU assay at 5 dpi,ZIKV production was also significantly inhibited
same,Perme. (cell permeability),[2],1.3 ×10⁻⁶ cm/s
